Molecules are shown by their SMILES. Structures can show the parent of a compound that is named as a salt. Where two headings read alike, the source gives them in different places. A value given as a limit tells only on which side of the number the result lay.

Experiment [1] deals with phosphorylated Btk at Tyr223 in Ramos cells (Homo sapiens (Human), UniProt Q06187). Briefly: Btk pY223 cellular assay (HTRF) in Ramos cells. In kind it is cell-based. The settings on record: 1 hour compound incubation, pervanadate or Na3VO4 stimulation. (Time-resolved FRET reads energy transfer from a long-lived donor to a nearby acceptor.)
phosphorylated Btk at Tyr223 in Ramos cells, sequence (Q06187 whole entry): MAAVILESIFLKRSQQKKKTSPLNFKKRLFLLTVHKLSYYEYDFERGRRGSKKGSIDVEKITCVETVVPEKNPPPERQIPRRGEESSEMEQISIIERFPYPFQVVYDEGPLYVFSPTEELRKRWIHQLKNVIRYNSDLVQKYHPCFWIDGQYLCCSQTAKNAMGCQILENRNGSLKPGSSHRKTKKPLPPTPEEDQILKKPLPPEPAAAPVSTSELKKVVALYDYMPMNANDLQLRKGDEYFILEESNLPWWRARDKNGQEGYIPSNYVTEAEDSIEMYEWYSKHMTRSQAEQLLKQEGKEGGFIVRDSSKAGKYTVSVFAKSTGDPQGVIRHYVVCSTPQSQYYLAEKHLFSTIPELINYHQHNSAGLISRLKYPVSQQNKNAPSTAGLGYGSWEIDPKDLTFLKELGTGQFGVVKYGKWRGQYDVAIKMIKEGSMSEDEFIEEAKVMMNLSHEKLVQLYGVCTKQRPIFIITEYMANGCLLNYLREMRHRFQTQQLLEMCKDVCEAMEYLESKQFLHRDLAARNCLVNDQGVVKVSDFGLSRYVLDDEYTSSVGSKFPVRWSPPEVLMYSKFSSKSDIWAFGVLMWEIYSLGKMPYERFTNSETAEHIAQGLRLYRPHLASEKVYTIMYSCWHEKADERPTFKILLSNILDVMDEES
Protocol: Btk pY223 cellular assay is a HTRF based assay intended to determine the endogenous levels of phosphorylated Btk at Tyr223.
Briefly, Ramos cells were serum starved in 0.5% FBS-containing RPMI1640 for 2 hours. Following starvation, the cells were incubated with compounds to be detected at various concentrations in a CO2 incubator for 1 hour. After incubation, cells were stimulated with 1 mM pervanadate (PV) or Na3VO4 (OV) for 20 min. Then, the cells were spinned down and lysed with 1× lysis buffer at RT for 10 min (4× lysis buffer supplied in the kit). During the incubation, 1× antibody mix was prepared by diluting anti-Btk-d2 and anti-pBtk-K in detection buffer (supplied in the kit). […] After that, 18 ul of cell lysate was transferred to the assay plate pre-loaded with antibody solution. After mixing gently and spinning briefly, the plate was sealed up and kept in dark at RT for 18 hours. […] IC50 values were calculated with GraphPad Prism software using the sigmoidal dose-response function.
The next experiment concerns the target Recombinant Btk (Homo sapiens (Human), UniProt Q06187). Description: Btk kinase assay (TR-FRET).

Recombinant Btk, sequence (Q06187 whole entry): as above

The IC50 is the concentration that inhibits the measured activity by half. `C=CC(=O)N1CC[C@H]2[C@H](CNc3c(C(N)=O)c(-c4ccc(Oc5ccccc5)cc4)nn32)C1` (relative stereo) [Compound 30, Cis-7-Acryloyl-2-(4-phenoxyphenyl)-4,5,5a,6,7,8,9,9a-octahydro pyrazolo[1,5-a]pyrido[3,4-e]pyrimidine-3-carboxamide and Cis-7-acryloyl-2-(4-phenoxyphenyl)-4,4a,5,6,7,8,8a,9-octahydropyrazolo[1,5-a]pyrido[4,3-d]pyrimidine-3-carboxamide]: the half-maximal inhibitory concentration (IC50) in experiment [1] is 4 nM; on Recombinant Btk, 1 nM.

Take `NC(=O)c1c(-c2ccc(Oc3ccccc3)cc2)nn2c1NCC[C@H]2C1CCN(C(=O)/C=C/CN2CCN(CCNC(=O)CCCC(=O)NCCCOCCOCCOCCCNC(=O)CCCC[C@H]3SC[C@H]4NC(=O)N[C@H]43)CC2)CC1` [Compound 178, N1-(2-(4-((E)-4-(4-((S)-3-carbamoyl-2-(4-phenoxyphenyl)-4,5,6,7-tetrahydropyrazolo[1,5-a]pyrimidin-7-yl)piperidin-1-yl)-4-oxobut-2-en-1-yl)piperazin-1-yl)ethyl)-N5-(15-oxo-19-((3aR,4R,6aS)-2-oxohexahydro-1H-thieno[3,4-d]imidazol-4-yl)-4,7,10-trioxa-14-azanonadecyl)glutaramide trifluoroacetate]: the values for the concentration for half-maximal inhibition (IC50) (in experiment [1]; on Recombinant Btk) were > 1000 nM and 46 nM, respectively.

In the case of `C=CC(=O)Nc1ccc2c(c1)CCNc1c(C(N)=O)c(-c3ccc(Oc4ccccc4)cc3)nn1-2` [Compound 72, 8-Acrylamido-2-(4-phenoxyphenyl)-5,6-dihydro-4H-benzo[f]pyrazolo[1,5-a][1,3]diazepine-3-carboxamide], the IC50 stood at 10.5 nM in experiment [1] and 4.1 nM at Recombinant Btk (IC50 (nM) Btk, recombinant Btk, 1 hour pre-incubation, ATP at Km).

As for `C=CC(=O)Nc1ccccc1C1CCNc2c(C(N)=O)c(-c3ccc(OCc4ccccc4)cc3)nn21` (centres unmarked) [Compound 10, 7-(2-Acrylamidophenyl)-2-(4-(benzyloxy)phenyl)-4,5,6,7-tetrahydro pyrazolo[1,5-a]pyrimidine-3-carboxamide], the 50% inhibitory concentration (IC50) worked out at 8 nM in experiment [1] and 1.5 nM at Recombinant Btk (read-out: IC50 (nM) Btk, recombinant Btk, 1 hour pre-incubation, ATP at Km).

The record behind these values is patent US9447106B2, “Substituted pyrazolo[1,5-a]pyrimidines as bruton's tyrosine kinase modulators” (Beigene, Ltd., priority 2013, dated 2016).
